# Assay results taken from patent US20220313639A1, “MITOCHONDRIAL FUNCTION ACTIVATOR” (Yuki Gosei Kogyo Co., Ltd., priority 2019, published 2022).
# Read-outs that look alike come from different tables or passages of the source.
# Legend:
# [1] = tested on: C2C12 cells differentiated into myotube cells
# Description: (§1) The number of activated mitochondria in C2C12 cells was measured as follows. C2C12 cells were seeded in 6-well plates at 4.0×10^5 cells/well, and after 24 hours, β-alanine was added thereto at a concentration of 500 μM or 1 mM. In addition, 1×PBS was added to as a control well. After 2 hours from the above addition, the medium was removed by suction, and 2 mL/well of Mito Tracker Red CMXRos (Invitrogen) (Invitrogen) which is diluted to 250 nM in DMEM medium containing 10% FBS, was added. Then, the whole was incubated for 30 minutes at 37° C. in the presence of 5% CO2 under shading. Then, the diluted solution was removed by suction, and 1×PBS was added at 1 mL/well to wash the cells. 1×PBS was removed by suction and trypsin was added at 500 μL/well. Then, trypsin was removed by suction and incubated at 37° C. in the presence of 5% CO2 for 5 minutes under shading. After incubation, the cells were suspended to 1 mL of DMEM medium containing 10% FBS to be collected in a 1.5 mL tube.
# (§2) After passing this cell suspension through a nylon mesh (Kyoshin Riko), the cells were measured by a flow cytometer (EPICS XL System II-JK, Beckman Coulter, CA, USA; Cell Analyzer EC800 CSC, Sony). The analysis was performed at the FCM analysis software FlowJo (TOMY Digital Biology, Tokyo, Japan).
# (§3) In addition, cells were seeded, and β-alanine was added thereto at a concentration of 100 μM or 1 mM. […]
# [2] = tested on: C2C12 cells differentiated into myotube cells; remark: listed apart in the source
# Description: as §1, with “C2C12” for “The number of activated mitochondria in C2C12 cells was measured as follows. C2C12”, “Green FM” for “Red CMXRos (Invitrogen)”, “200” for “250”, “tube. After passing this cell suspension through a nylon mesh (Kyoshin Riko, Tokyo, Japan), the cells were measured by a flow cytometer (EPICS XL System II-JK, Beckman Coulter, CA, USA; Cell Analyzer EC800 CSC, Sony, Tokyo, Japan). The analysis was performed at the FCM analysis software FlowJo (TOMY Digital Biology, Tokyo, Japan).” for “tube.”
# as §3
# [3] = tested on: Pgc-1α gene; conditions: differentiated C2C12 cells, 48 hours, relative to β-actin, ΔΔCt method
# [4] = tested on: undifferentiated mouse skeletal muscle-derived myoblast line, C2C12 cells; conditions: for mitochondrial activation (Mito Tracker Red CMXRos): vs 1×PBS control
# Description: (§4) C2C12 cells were subcultured at 37° C. in the presence of 5% CO2, using Dulbecco's Modified Eagle Medium (DMEM) (Nissui, Tokyo, Japan) containing 10% inactivated FBS, penicillin (100,000 U/L; Meiji, Tokyo, Japan), streptomycin (100 mg/L: Meiji), NaHCO3 (2.0 g/L: Wako, Osaka, Japan), and L-glutamine (Wako).
# as §1, §2
# (§5) In addition, cells were seeded, and β-alanine was added thereto at a concentration of 100 μM or 1 mM. After 24 hours, β-alanine was secondary added, and the medium was aspirated after 24 hours of the second addition. Using the above cells treated with β-alanine for 48 hours as cells to which the diluted solution of Mito Tracker Red CMXRos (Invitrogen) was added, the same procedure as the cells treated with β-alanine for 2 hours was repeated.
# On the other hand, Mito Tracker Red CMXRos (Invitrogen) is a fluorescent reagent that stains mitochondria in a membrane potential-dependent manner. Therefore,
# when a peak of the flow cytometer histogram shifts to the right by the addition of β-alanine, it indicates mitochondrial activity was enhanced.
# (§6) The procedure described in Example 1 was repeated, except that glycine was used instead of β-alanine.
# The cells were prepared by repeating the procedure of Mito Tracker Red CMX Ros in Example 1 except that the treatment with β-alanine was set to 72 hours.
# [5] = tested on: undifferentiated mouse skeletal muscle-derived myoblast line, C2C12 cells; conditions: vs 1×PBS control
# Description: as §4
# The number of mitochondria in C2C12 cells was measured as follows.
# as §1, with “C2C12” for “The number of activated mitochondria in C2C12 cells was measured as follows. C2C12”, “Green FM” for “Red CMXRos (Invitrogen)”, “200” for “250”, “tube. After passing this cell suspension through a nylon mesh (Kyoshin Riko, Tokyo, Japan), the cells were measured by a flow cytometer (EPICS XL System II-JK, Beckman Coulter, CA, USA; Cell Analyzer EC800 CSC, Sony, Tokyo, Japan). The analysis was performed at the FCM analysis software FlowJo (TOMY Digital Biology, Tokyo, Japan).” for “tube.”
# as §5, with “Green FM” for “Red CMXRos”
# Mito Tracker Green FM (Invitrogen) is a fluorescent reagent that stains mitochondria independently of the membrane potential.
# as §6
# [6] = tested on: Acaa1b gene; conditions: differentiated C2C12 cells; 500 μM
# Description: (§7) In this example, the transcription of the genes for Acaa1b and Acaa2 in β-alanine-treated mouse skeletal muscle-derived myoblast line, C2C12 cells was measured.
# (§8) The procedure described in Example 4 was repeated except that the Acaa1b forward primer and the Acaa1b reverse primer, or the Acaa2 forward primer and the Acaa2 reverse primer were used instead of the Pgc-1α forward primer and the Pgc-1α reverse primer.
# [7] = tested on: Acaa2 gene; conditions: differentiated C2C12 cells; 500 μM
# Description: as §7, §8
# [8] = tested on: undifferentiated mouse skeletal muscle-derived myoblast line, C2C12 cells; conditions: 48 hours
# Description: In this example, mitochondrial activation was examined by using a confocal laser scanning microscope.
# The cells treated with β-alanine for 48 hours were prepared by the same procedure as in Example 1. C2C12 cells were seeded at a concentration of 3.0×10^4 cells/mL or 5.0×10^4 cell s/mL, and Mito Tracker Green FM (Invitrogen) and Mito Tracker Red CMXRos (Invitrogen) were added simultaneously. The resulting cells were observed under a confocal laser scanning microscope (Olympus).
# [9] = treatment time 2 hours, 500 μM or 1 mM
# [10] = treatment time 48 hours, 100 μM or 1 mM
structure (smiles),measurement,setting,value
NCC(=O)O [glycine],mitochondrial activation (Mito Tracker Red CMXRos),[1]; treatment time 2 hours,mitochondrial activation was confirmed
same,mitochondrial activation (Mito Tracker Red CMXRos),[1]; treatment time 48 hours,mitochondrial activation was confirmed
same,number of mitochondria (Mito Tracker Green FM),[2]; treatment time 2 hours,increased in a concentration-dependent manner
same,number of mitochondria (Mito Tracker Green FM),[2]; treatment time 48 hours,increased in a concentration-dependent manner
same,expression of Pgc-1α,[3]; 500 μM,enhanced the expression
same,mitochondrial activation (Mito Tracker Red CMXRos),[4]; [9],mitochondrial activation was confirmed
same,mitochondrial activation (Mito Tracker Red CMXRos),[4]; [10],mitochondrial activation was confirmed
same,number of mitochondria (Mito Tracker Green FM),[5]; [9],increased in a concentration-dependent manner
same,number of mitochondria (Mito Tracker Green FM),[5]; [10],increased in a concentration-dependent manner
"NCCC(=O)O [β-alanine, 3-aminopropanoic acid]",expression of Acaa1b,[6],enhanced the expression
same,expression of Acaa2,[7],enhanced the expression
same,expression of Pgc-1α,[3]; 500 μM,enhanced the expression
same,expression of Pgc-1α,[3]; 1 mM,enhanced the expression
same,fluorescence of Mito Tracker Red (flow cytometry),[4]; treatment 72 hours,increased the fluorescence
same,mitochondrial activation (Mito Tracker Red CMXRos),[4]; [9],mitochondrial activation was confirmed
same,mitochondrial activation (Mito Tracker Red CMXRos),[4]; [10],mitochondrial activation was confirmed
same,red fluorescence of Mito Tracker Red CMX Ros (confocal microscope),[8]; 500 μM,strengthened the red fluorescence
same,red fluorescence of Mito Tracker Red CMX Ros (confocal microscope),[8]; 1 mM,further strengthened the red fluorescence
same,number of mitochondria (Mito Tracker Green FM),[5]; [9],increased in a concentration-dependent manner
same,number of mitochondria (Mito Tracker Green FM),[5]; [10],increased in a concentration-dependent manner
